Measurements reported in patent publication US9464064B2, “HCV helicase inhibitors and methods of use thereof” (University of Kansas, priority 2011, dated 2016).
Starred links: 1 amine or outer side, 2 acyl side, 3 side chain; linkers in the order of their positions; H or OH if unused. Positions of bridges follow the written chain, without caps; N, C: chain ends. Non-standard residues stand in square brackets, D forms with d. Residues, ends and D or L forms follow the SMILES beside them. Chains are numbered I, II in the order given. Actinocin(1to9) = Cc1c2oc3c(C)ccc(C(=O)[*:2])c3nc-2c(C(=O)[*:1])c(N)c1=O; NMeV = CN[C@H](C(=O)O)C(C)C; Sar = CNCC(=O)O

Target: T1, HCV NS3 helicase NS3h_1b(con1) (Hepatitis C virus genotype 1b, UniProt Q9WMX2)
T1 construct: truncated C-terminally His-tagged NS3 proteins lacking the N-terminal protease, called NS3h; His-tag (C); made in house
T1 sequence (Q9WMX2 1192-1657): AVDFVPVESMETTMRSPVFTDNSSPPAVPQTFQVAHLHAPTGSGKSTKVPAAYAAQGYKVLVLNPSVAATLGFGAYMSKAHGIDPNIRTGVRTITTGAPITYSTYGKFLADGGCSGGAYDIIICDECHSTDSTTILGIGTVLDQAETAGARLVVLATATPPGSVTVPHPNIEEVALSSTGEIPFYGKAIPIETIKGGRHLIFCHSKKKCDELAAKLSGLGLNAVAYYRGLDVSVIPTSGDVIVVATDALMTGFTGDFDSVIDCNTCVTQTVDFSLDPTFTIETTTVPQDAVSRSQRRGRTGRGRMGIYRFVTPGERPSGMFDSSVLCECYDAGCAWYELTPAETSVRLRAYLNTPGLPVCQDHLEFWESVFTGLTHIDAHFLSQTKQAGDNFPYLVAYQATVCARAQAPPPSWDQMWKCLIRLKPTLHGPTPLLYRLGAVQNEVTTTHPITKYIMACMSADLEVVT
Assay: MBHA screen of NCI mechanistic set library at 20 μM (percent inhibition, compound interference)
Format: biochemical
Conditions: compounds at 20 μM; for Inh. (%) (Inhibition): calculated from Equation 1
Method: All molecular beacon-based helicase assays (MBHAs) were performed according to known methods (Belon & Frick (2008) supra; Belon & Frick (2009) supra). […] In each flat, black 384-well plate, 56 compounds were tested, in triplicate, along with three negative controls (DMSO only), three positive controls (500 nM dT20), and two wells with no enzyme. Fluorescence was read before ATP (F0) addition and 30 minutes after ATP was added to 1 mM (F30) using a Tecan Infinite M200 fluorescence microplate reader with excitation and emission wavelengths set to 643 and 670 nm, respectively. Percent inhibition was calculated with equation 1, and compound interference in the MBHA was calculated with equation 2.
In Equations 1 and 2, Fc0 is the fluorescence of the reactions containing the test compound before adding ATP, Fc30 is the fluorescence of the test compound reaction 30 minutes after adding ATP. F(−)0 is the average of three DMSO-only negative control reactions before adding ATP and F(−)30 is the average of three DMSO-only reactions 30 minutes after adding ATP.
To identify HCV helicase inhibitors, the MBHA was first used to screen the National Cancer Institute Developmental Therapeutics Program's mechanistic set library. In total, 827 compounds (at 20 μM) were screened using a MBHA with a DNA substrate (Table 1). Compounds were ranked by their ability to inhibit HCV helicase-catalyzed DNA unwinding as calculated from Equation 1.
Compound interference in the MBHA was evaluated by comparing the fluorescence of reactions containing each compound to the fluorescence of DMSO-only negative controls before ATP was added.

[1] = MBHA with DNA substrate, assay interference calculated with Equation 2
[2] = assay interference calculated with Equation 2 (fluorescence vs DMSO-only controls before ATP)

SMILES	Int.* (Ratio) (Interference) [1]	Inh. (%) (Inhibition) (MBHA with DNA substrate)	Inh. (%) (Inhibition) (MBHA with a DNA substrate)	Int.* (Ratio) (Interference) [2]
Cc1nc(N)nc(N)c1-c1ccc(Cl)c(Cl)c1 [Compound 7364]	0.86	20.2	–	–
CC1OC(O[C@@H]2C=C3CC[C@@H]4[C@H](CC[C@]5(C)[C@@H](c6ccc(=O)oc6)CC[C@]45O)[C@@]3(C)CC2)C(O)C(O)C1O (stereo partly drawn) [Compound 7521]	0.94	5.5	–	–
COC1CC(O[C@H]2CC[C@]3(C=O)[C@H]4CC[C@]5(C)[C@@H](C6=CC(=O)OC6)CC[C@]5(O)[C@@H]4CC[C@]3(O)C2)OC(C)C1O (stereo partly drawn) [Compound 7522]	–	–	−24.0	0.97
COC1CC(OC2CCC3(C=O)C4CCC5(C)C(C6=CC(=O)OC6)CCC5(O)C4CCC3(O)C2)OC(C)C1OC1OC(COC2OC(CO)C(O)C(O)C2O)C(O)C(O)C1O (stereo not drawn) [Compound 7530]	–	–	−19.7	0.98
CC(=O)O[C@H]1C[C@H](O[C@H]2[C@@H](O)C[C@H](O[C@H]3[C@@H](O)C[C@H](O[C@H]4CC[C@@]5(C)[C@H](CC[C@@H]6[C@@H]5CC[C@]5(C)[C@@H](C7=CC(=O)OC7)CC[C@]65O)C4)O[C@@H]3C)O[C@@H]2C)OC(C)[C@H]1O[C@@H]1O[C@H](CO)[C@@H](O)[C@H](O)[C@H]1O (stereo partly drawn) [Compound 7532]	–	–	−3.4	0.89
C1CN1c1nc(N2CC2)nc(N2CC2)n1 [Compound 9706]	0.98	−10.9	–	–
CCCCCCCC/C=C\CCCCCCCC(=O)O [Compound 9856]	0.84	12.6	–	–
COc1ccc2nc(C)cc(NCCCCCCCCCNc3cc(C)nc4ccc(OC)cc34)c2c1 [Compound 10010]	0.23	56.7	–	–
CC(C)=CC1C(C(=O)O)C1(C)C (stereo not drawn) [Compound 11779]	0.89	16.8	–	–
COc1cccc2c1cc([N+](=O)[O-])c1c(C(=O)O)cc3c(c12)OCO3 [Compound 11926]	1.14	−12.8	–	–
Nc1ccc2c(c1)S(=O)(=O)c1cc(N)ccc1-2 [Compound 13966]	1.13	−14.1	–	–
Cc1cc2cc3cc(C)c(N)cc3nc2cc1N [Compound 13973]	0.28	31.8	–	–
CCN(CC)CCCC(C)Nc1c2ccc(Cl)cc2nc2ccc(OC)cc12.Cl.Cl (stereo not drawn) [Compound 14229]	1.08	55.1	–	–
CC1=CC(O)C(O)C2(C)C1CC1OC(=O)C(O)C3C(C)C(O)C4(O)OCC13C42 (stereo not drawn) [Compound 14974]	0.99	20.9	–	–
CC[C@](C)(O)C(=O)O[C@H]1C(=O)O[C@@H]2C[C@H]3C(C)=C[C@H](O)[C@@H](O)[C@]3(C)[C@H]3[C@@]4(O)OC[C@]32[C@@H]1[C@@H](C)[C@H]4O [Compound 14975]	–	–	−20.8	1.03
O=[N+]([O-])[O-].O=[N+]([O-])[O-].O=[N+]([O-])[O-].[Ga+3] [Compound 15200]	0.75	53.4	–	–

SMILES	Int.* (Ratio) (Interference) [1]	Inh. (%) (Inhibition) (MBHA with DNA substrate)	Inh. (%) (Inhibition) (MBHA with a DNA substrate)	Int.* (Ratio) (Interference) [2]
CC[C@H](C)[C@@H]1NC(=O)[C@@H](NC(=O)c2c3nc4c(C(=O)N[C@@H]5C(=O)N[C@@H](C(C)C)C(=O)N6CCC[C@H]6C(=O)N(C)CC(=O)N(C)[C@@H](C(C)C)C(=O)O[C@@H]5C)ccc(C)c4oc-3c(C)c(=O)c2N)[C@@H](C)OC(=O)[C@H](C(C)C)N(C)C(=O)CN(C)C(=O)[C@@H]2CCCN2C1=O [Compound 18268] (I: TIP[Sar][NMeV] / II: TVP[Sar][NMeV]; ester I:1-I:C, II:1-II:C; linker I:N-II:N via Actinocin(1to9))	0.61	27.6	–	–
CC(C)c1cccc(O)c(=O)c1 [Compound 18804]	0.97	15.2	–	–
CC(C)c1ccc(O)c(=O)cc1 [Compound 18805]	0.98	31.0	–	–
CCCCCCCCCCCCC(O)C(=O)O (stereo not drawn) [Compound 18938]	1.06	1.7	–	–
COC(=O)C1C(O)C(C)C(O)C(C)/C=C\C=C(C)C(=O)Nc2c(C)c(OC(C)=O)c3c(c2O)C(=O)C(C)=C2OCOC(=C23)C(C)=CC(C)(O)C(O)C(C)C1O (stereo not drawn) [Compound 19990]	0.96	25.1	–	–
Nc1nc2c(ncn2[C@@H]2O[C@H](CO)[C@@H](O)[C@H]2O)c(=O)[nH]1 [Compound 19994]	–	–	10.4	1.05
CCCCOCc1cc(CN2CCN(C)CC2)c(O)c2ncccc12 [Compound 20514]	–	–	−19.2	1.06
Cc1cn(C2CC(O)C(CO)O2)c(=O)[nH]c1=O (stereo not drawn) [Compound 21548]	0.98	2.1	–	–
CC(CN(C)C)C(=O)c1ccccc1C(=O)O (stereo not drawn) [Compound 22992]	0.86	25.9	–	–
CO[C@H](C(=O)[C@@H](O)[C@@H](C)O)[C@@H]1Cc2cc3cc(O[C@H]4C[C@@H](O[C@H]5C[C@@H](O)[C@H](O)[C@@H](C)O5)[C@H](O)[C@@H](C)O4)c(C)c(O)c3c(O)c2C(=O)[C@H]1O[C@H]1C[C@@H](O[C@H]2C[C@@H](O[C@H]3C[C@](C)(O)[C@H](O)[C@@H](C)O3)[C@@H](O)[C@@H](C)O2)[C@H](O)[C@@H](C)O1 [Compound 24559]	0.91	36.0	–	–
COc1cc([C@@H]2c3cc4c(c(O)c3C[C@H]3COC(=O)[C@@H]32)OCO4)cc(OC)c1O [Compound 24817]	0.99	15.4	–	–
COc1cc(C2c3cc4c(cc3C(O)C3COC(=O)C23)OCO4)cc(OC)c1OC (stereo not drawn) [Compound 24818]	1.07	−2.7	–	–
COc1cc([C@@H]2c3cc4c(c(O)c3C[C@H]3COC(=O)[C@@H]32)OCO4)cc(OC)c1OC [Compound 24819]	1.12	−0.3	–	–
CC(C)C1=CC2=CC[C@@H]3[C@](C)(CCC[C@@]3(C)C(=O)O)[C@H]2CC1 [Compound 25149]	0.93	−11.6	–	–
OC(CN1CCCCC1)c1ccc(/C=C/c2ccc(Cl)cc2)cc1 (stereo not drawn) [Compound 26040]	0.97	−17.0	–	–

Results, then the molecule that gave them:

Int.* (Ratio) (Interference) [1]	Inh. (%) (Inhibition) (MBHA with DNA substrate)	Inh. (%) (Inhibition) (MBHA with a DNA substrate)	Int.* (Ratio) (Interference) [2]	SMILES
0.97	−0.5	–	–	O=C1c2cccc(O)c2C(=O)c2c(O)cccc21 [Compound 7210]
1.07	−18.7	–	–	Nc1ccc(N)c2c1C(=O)c1ccccc1C2=O [Compound 7833]
1.06	5.6	–	–	O=C1c2ccccc2C(=O)c2c(O)c(O)cc(O)c21 [Compound 10447]
1.05	2.5	–	–	CC1=C(O)c2ccccc2C(=O)C1=O [Compound 11897]
–	–	−4.3	0.80	CC(C)=CCC1=C(O)c2ccccc2C(=O)C1=O [Compound 11905]
1.10	−18.9	–	–	CN(C)CCOc1ccc(I)cc1Cc1ccccc1.Cl [Compound 11930]
0.95	4.4	–	–	O=c1c(Br)c(-c2ccccc2)[nH]c2ccccc12 [Compound 12825]
0.85	30.3	–	–	CCN(CC)CCNc1ccc(C)c2sc3ccccc3c(=O)c12.Cl [Compound 14574]
–	–	−4.0	0.89	CN(C)CCCN1c2ccccc2Sc2ccc3ccccc3c21 [Compound 18891]
–	–	7.4	1.05	CCN(CC)CCOc1ccc(C(O)(Cc2ccc(OC)cc2)c2ccccc2)cc1 (stereo not drawn) [Compound 19857]
0.96	15.7	–	–	CCN(CCO)CCNc1ccc(C)c2sc3ccccc3c(=O)c12 [Compound 20534]
1.10	1.5	–	–	O=c1oc2cc(O)ccc2c2oc3cc(O)ccc3c12 [Compound 22842]
1.11	−12.7	–	–	CN(CCc1ccccn1)c1ccc2c(c1)C(=O)c1ccccc1-2 [Compound 24048]
–	–	11.0	0.81	CN(C)CCCN1c2ccc3ccccc3c2Sc2cccc(Cl)c21 [Compound 24113]
